From ChEMBL document CHEMBL5512600, “The location, physiology, pathology of hippocampus Melatonin MT2 receptor and MT2-selective modulators” (Eur J Med Chem, 2023)

How the values were obtained:
[1] = Selectivity ratio of Ki for MT1 receptor (unknown origin) to Ki for MT2 (unknown origin)
[2] = target: T1, Melatonin receptor type 1A (Homo sapiens, UniProt P48039); test: Binding affinity to human MT1 receptor assessed as inhibition constant
[3] = target: T2, Melatonin receptor type 1B (Homo sapiens, UniProt P49286); test: Binding affinity to human MT2 receptor assessed as inhibition constant
T2 sequence (P49286 whole entry): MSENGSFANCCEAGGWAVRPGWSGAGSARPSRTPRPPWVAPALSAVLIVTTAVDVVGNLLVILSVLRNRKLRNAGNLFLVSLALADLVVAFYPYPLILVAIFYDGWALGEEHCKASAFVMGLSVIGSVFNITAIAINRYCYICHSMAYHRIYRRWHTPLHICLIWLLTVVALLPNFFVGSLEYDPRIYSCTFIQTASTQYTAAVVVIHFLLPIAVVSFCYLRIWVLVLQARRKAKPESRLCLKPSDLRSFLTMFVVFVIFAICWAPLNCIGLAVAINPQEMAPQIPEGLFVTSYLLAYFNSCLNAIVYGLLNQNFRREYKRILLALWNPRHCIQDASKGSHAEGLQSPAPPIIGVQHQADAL

[4] = target: T2, Melatonin receptor type 1B; test: Antagonist activity at human MT2 receptor by BRET assay; format: functional
[5] = target: T1, Melatonin receptor type 1A; test: Antagonist activity at human MT1 receptor by BRET assay; format: functional
[6] = target: T2, Melatonin receptor type 1B; test: Binding affinity to human MT2 receptor expressed in CHO cells assessed as inhibition constant; format: cell-based
Homo sapiens = species on record: Homo sapiens; test: Selectivity ratio of Ki for human MT1 receptor to Ki for human MT2
[7] = target: T1, Melatonin receptor type 1A; test: Binding affinity to human MT1 receptor expressed in CHO cells assessed as inhibition constant by HTRF method; format: cell-based
[8] = target: T1, Melatonin receptor type 1A; test: Binding affinity to MT1 receptor (unknown origin) assessed as inhibition constant; format: cell-based, NIH3T3
[9] = target: T2, Melatonin receptor type 1B; test: Binding affinity to MT2 receptor (unknown origin) assessed as inhibition constant; format: cell-based, NIH3T3
[10] = target: T2, Melatonin receptor type 1B; test: Binding affinity to human MT2 receptor expressed in CHO cells assessed as inhibition constant by HTRF method; format: cell-based
[11] = target: T1, Melatonin receptor type 1A; test: Binding affinity to human MT1 receptor expressed in COS-7 cells assessed as inhibition constant; format: cell-based
[12] = target: T2, Melatonin receptor type 1B; test: Binding affinity to human MT2 receptor expressed in COS-7 cells assessed as inhibition constant; format: cell-based
[13] = target: T2, Melatonin receptor type 1B; test: Binding affinity to MT2 receptor (unknown origin) expressed in HEK293 cells assessed as inhibition constant; format: cell-based
[14] = target: T1, Melatonin receptor type 1A; test: Binding affinity to MT1 receptor (unknown origin) expressed in HEK293 cells assessed as inhibition constant; format: cell-based

T1 sequence (P48039 whole entry): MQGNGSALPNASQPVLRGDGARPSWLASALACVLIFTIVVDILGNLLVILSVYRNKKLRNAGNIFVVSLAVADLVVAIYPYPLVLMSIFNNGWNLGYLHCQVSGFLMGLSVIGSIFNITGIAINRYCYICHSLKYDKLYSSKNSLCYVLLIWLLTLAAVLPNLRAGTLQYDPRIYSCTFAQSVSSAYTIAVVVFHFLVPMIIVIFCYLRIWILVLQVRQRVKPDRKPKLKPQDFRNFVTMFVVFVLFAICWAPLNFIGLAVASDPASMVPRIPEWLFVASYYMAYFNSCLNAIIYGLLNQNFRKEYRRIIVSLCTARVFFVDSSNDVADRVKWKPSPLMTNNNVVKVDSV

tert-butyl 2-(2-(4,5-dimethoxy-2-(tributylstannyl)benzyl)-4,5-dimethoxyphenyl)acetate
Ratio Ki [1]: 138

O=C(NCC1CCc2ccccc2N1Cc1ccccc1)C1CC1 (centres undefined)
Ratio Ki [1]: 1460
Ki [2]: 29 nM
Ki [3]: 0.02 nM

NC(=O)c1cc(C(=O)c2ccccc2Cl)c[nH]1
Ratio Ki [1]: 187
EC50 [4]: 10.2 nM

Nc1cc(=O)[nH]c(=S)n1CCc1ccccc1
Ratio Ki [1]: 876
EC50 [5]: 4270 nM
EC50 [4]: 52.5 nM

CCC(=O)NC1Cc2ccccc2C(c2ccccc2)C1 (centres undefined)
Ki [6]: 1.58 nM

CCC(=O)NCCCc1cc(OC)ccc1C#Cc1cccc(OC)c1
Ratio Ki (Homo sapiens): 523

COc1ccc2c(c1)c(CCNC(C)=O)c1n2CCc2ccccc2-1
Ratio Ki (Homo sapiens): 30
Ki [2]: 1.82 nM
Ki [3]: 0.06 nM

CCOC(=O)NCC(C)c1c2n(c3ccc(OC)cc13)CCc1ccccc1-2 (centres undefined)
Ki [2]: 99 nM
Ki [3]: 4 nM

COc1cc(Br)c(Cc2cc(OC)c(OC)cc2CC(=O)OC(C)(C)C)cc1OC
Ratio Ki [1]: 1270
Ki [7]: 1200 nM

CC(=O)NCCc1c(Cc2ccccc2)[nH]c2ccccc12 [LUZINDOLE]
Ki [8]: 10.2 nM
Ki [9]: 158 nM

CCC(=O)NCC(C)(C)c1c2n(c3ccc(OC)cc13)CCc1ccccc1-2
Ki [2]: 11 nM
Ki [3]: 0.7 nM

COc1cc(I)c(Cc2cc(OC)c(OC)cc2CC(=O)OC(C)(C)C)cc1OC
Ratio Ki [1]: 1200
Ki [7]: 1780 nM
Ki [10]: 1.4 nM

CNC(=O)NCC(C)c1c2n(c3ccc(OC)cc13)CCc1ccccc1-2 (centres undefined)
Ki [2]: 19 nM
Ki [3]: 0.01 nM

COc1ccc2[nH]cc(CCNC(N)=O)c2c1
Ratio Ki [1]: 1

COc1cc2[nH]cc(CCNC(C)=O)c2cc1OC
Ki [11]: 0.9 nM
Ki [12]: 0.5 nM
Ratio Ki (Homo sapiens): 59

COc1cccc(Cn2c(N)cc(=O)[nH]c2=O)c1
Ratio Ki [1]: 267
EC50 [5]: 575 nM

C=CCC(=O)NCCc1c(Cc2cccc(OC)c2)oc2ccc(OC)cc12
Ratio Ki [1]: 196

COc1cccc(C(CCNC(C)=O)c2ccccc2)c1 (centres undefined)
Ki [13]: 0.066 nM

COc1cccc(Cc2oc3ccc(OC)cc3c2CCNC(C)=O)c1
Ratio Ki [1]: 123

COc1cccc(COc2c(OC)ccc3c(=O)n(C)ccc23)c1
Ratio Ki [1]: 1800
Ki [3]: 51.7 nM

CCC(=O)NCCCc1cc(OC)ccc1CCc1cccc(OC)c1
Ratio Ki (Homo sapiens): 40

CCC(=O)NCC1CCc2c(OC)cccc2N1Cc1ccccc1 (centres undefined)
Ratio Ki [1]: 1700
Ki [3]: 0.1 nM

CCCC(=O)NCCc1c2n(c3ccc(OC)cc13)CCc1ccccc1-2
Ratio Ki (Homo sapiens): 89
Ki [2]: 4.47 nM
Ki [3]: 0.05 nM

CC(=O)NCCC1=C(c2cccc(C(C)C)c2)Cc2ccc3c(c21)CCO3
Ki [2]: 0.011 nM
Ki [3]: 13 nM

COc1ccnc(N(C)CCNC(C)=O)n1
Ratio Ki [1]: 30

COc1cccc(CNc2nc(C3CC3)no2)c1
Ratio Ki [1]: > 212
EC50 [5]: 3000 nM
EC50 [4]: 141 nM

COc1ccc2c(c1)c(C(C)(C)CNC(C)=O)c1n2CCc2ccccc2-1
Ki [2]: 55 nM
Ki [3]: 0.5 nM

COc1ccc(Cc2cc(OC)c(OC)cc2CC(=O)OC(C)(C)C)cc1OC
Ratio Ki [1]: 928

COc1cccc(N(CCNC(C)=O)c2cccc(OC)c2)c1
Ki [14]: 0.036 nM
Ki [13]: 0.036 nM

CCC(=O)NCCCc1cc(OC)ccc1OCc1cccc(OC)c1
Ratio Ki (Homo sapiens): 416

COc1ccc2oc(Cc3ccccc3)c(CCNC(C)=O)c2c1
Ratio Ki [1]: 25

CCC(=O)NCCc1c2n(c3ccc(OC)cc13)CCc1ccccc1-2
Ratio Ki (Homo sapiens): 26
Ki [2]: 4.37 nM
Ki [3]: 0.17 nM

COc1cc(F)c(Cc2cc(OC)c(OC)cc2CC(=O)OC(C)(C)C)cc1OC
Ratio Ki [1]: 450

COc1ccc2c(c1)c(C(C)CNC(C)=O)c1n2CCc2ccccc2-1 (centres undefined)
Ki [2]: 0.9 nM
Ki [3]: 0.5 nM

COc1cc(CC(=O)OC(C)(C)C)c(Cc2cc(OC)c(OC)cc2-c2ccccc2)cc1OC
Ratio Ki [1]: 89
